# In PubChem BioAssay AID977613 (Broad Institute, 2014):
# Active and inactive are the calls of the source. The rule behind the calls is not given here.
# Tested on: Broad 7084-01 inhibitor HTS, set 2
# Assay: single-concentration hits, screen 7084 set 2 (AID 977613);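 note: host cells are infected with parasite promastigotes that become internalized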
row,Structure (SMILES),active concentration
1,COc1cccc(C(=O)Nc2ccc3c(c2)C(=O)N(C)[C@H]2CC[C@@H](CC(=O)NCCCN4CCOCC4)O[C@H]2CO3)c1,> 10 µM (inactive)
2,CC(C)(O)C#Cc1ccc([C@H]2[C@@H](CO)N3CCCCN(S(C)(=O)=O)C[C@@H]23)cc1,> 10 µM (inactive)
3,COc1ccc2c3c(n(C)c2c1)[C@@H](CO)N(C(=O)C1CC1)CC31CCN(Cc2cccc(F)c2)CC1,> 10 µM (inactive)
4,CCS(=O)(=O)N1CC2(C1)[C@H](c1ccccc1)[C@@H](CO)N2C(=O)c1ccccc1,> 10 µM (inactive)
5,O=C(c1cnccn1)N1CC(=O)N2[C@H](CO)[C@@H](c3ccc(C#CC4CC4)cc3)[C@H]2C1,> 10 µM (inactive)
6,O=C(Cc1ccccc1)N1CC[C@@H]2[C@H](CO)Nc3ccc(C4=CCCCC4)cc3[C@@H]21,> 10 µM (inactive)
7,COc1cccc(S(=O)(=O)N2CCCCN3[C@H](C2)[C@H](c2ccc(C#CCC(C)C)cc2)[C@@H]3CO)c1,> 10 µM (inactive)
8,CCS(=O)(=O)N1CC2(CN(C(=O)Cc3ccccn3)[C@H](CO)c3[nH]c4cc(OC)ccc4c32)C1,> 10 µM (inactive)
9,CN1c2ccc(C#Cc3cccnc3)cc2[C@H]2[C@H](CCN2C(=O)C2CCCCC2)[C@H]1CO,> 10 µM (inactive)
10,CCS(=O)(=O)Nc1ccc2c(c1)C(=O)N(C)[C@H]1CC[C@@H](CC(=O)NCCOC)O[C@H]1CO2,> 10 µM (inactive)
11,COc1ccc2c3c(n(C)c2c1)[C@@H](CO)N(C)CC31CN(CC2CC2)C1,> 10 µM (inactive)
12,O=C(C[C@@H]1CC[C@H]2[C@@H](COC[C@H](O)CN2C(=O)c2ccncc2)O1)NCc1ccc(-c2ccccc2)cc1,> 10 µM (inactive)
13,CCCN1[C@H](C(=O)Nc2nccs2)[C@@H](CO)[C@@H]2Cn3c(ccc(-c4ccccc4OC)c3=O)[C@@H]21,> 10 µM (inactive)
14,CCNC(=O)C[C@H]1CC[C@@H]2[C@H](COC[C@H](O)CN2C(=O)C2CC2)O1,> 10 µM (inactive)
15,N#C[C@H]1[C@H](c2ccccc2-c2ccccc2)[C@@H](CO)N1C(=O)Cc1ccncc1,> 10 µM (inactive)
16,CC(=O)N1CCCCN2[C@H](CO)[C@H](c3ccc(-c4ccccc4)cc3)[C@H]2C1,> 10 µM (inactive)
17,CC(=O)N1CC[C@@H]2[C@@H](CO)N(C)c3ccc(-c4ccc(C#N)cc4)cc3[C@@H]21,> 10 µM (inactive)
18,COC(=O)[C@H]1[C@H](CO)[C@H]2Cn3c(ccc(C4=CCCCC4)c3=O)[C@H]2N1Cc1ccc2c(c1)OCO2,> 10 µM (inactive)

row,Structure (SMILES),active concentration
1,OC[C@H]1[C@@H](c2ccc(C#CC3(O)CCCC3)cc2)[C@H]2CN(Cc3cncnc3)CCCCN21,> 10 µM (inactive)
2,O=S(=O)(c1ccccc1F)N1CC[C@@H]2[C@H]1c1cc(-c3ccccc3F)ccc1N[C@@H]2CO,> 10 µM (inactive)
3,C/C=C/c1ccc([C@H]2[C@H]3CN(S(=O)(=O)c4ccccc4)CC(=O)N3[C@H]2CO)cc1,> 10 µM (inactive)
4,O=C(NCc1ccccn1)[C@@H]1[C@@H](CO)[C@@H]2Cn3c(ccc(C4=CCCC4)c3=O)[C@H]1N2Cc1cccnc1,> 10 µM (inactive)
5,OC[C@H]1[C@H](c2ccc(Br)cc2)[C@H]2CN(Cc3ccccn3)CCCCN21,< 10 µM
6,C[C@@H](O)C#Cc1ccc([C@@H]2[C@@H](CO)N3CCCCN(C(=O)c4ccc5c(c4)OCO5)C[C@H]23)cc1,> 10 µM (inactive)
7,C/C=C/c1ccc2c(c1)[C@H]1[C@H](CCN1C(=O)Cc1cccnc1)[C@@H](CO)N2C,> 10 µM (inactive)
8,CCC(=O)N1CC(=O)N2[C@H](CO)[C@@H](c3ccc(-c4ccc(C#N)cc4)cc3)[C@@H]2C1,> 10 µM (inactive)
9,CN(C)CC(=O)N1[C@@H](CO)[C@@H](c2ccccc2)C12CN(CCC(F)(F)F)C2,> 10 µM (inactive)
10,CN1C(=O)c2cc(NC(=O)Nc3ccccc3Cl)ccc2OC[C@H]2O[C@@H](CC(=O)NCCCN3CCOCC3)CC[C@H]21,> 10 µM (inactive)
11,O=C(O)[C@H]1[C@H](CO)[C@H]2Cn3c(ccc(-c4ccc(F)cc4)c3=O)[C@@H]1N2CC1CCCCC1,> 10 µM (inactive)
12,O=C(NC1CCCC1)N1CCCCN2[C@H](C1)[C@@H](c1ccc(-c3cccnc3)cc1)[C@@H]2CO,> 10 µM (inactive)
13,CC(C)NC(=O)Nc1ccc2c(c1)C(=O)N(C)[C@@H]1CC[C@@H](CC(=O)NCc3ccc(F)cc3)O[C@H]1CO2,> 10 µM (inactive)
14,CCS(=O)(=O)N1[C@H](CO)[C@@H](c2ccccc2)C12CN(C(=O)C1CCCCC1)C2,> 10 µM (inactive)
15,COc1cccc(C(=O)Nc2ccc3c(c2)C(=O)N(C)[C@H]2CC[C@H](CC(=O)NCCCN4CCOCC4)O[C@H]2CO3)c1,> 10 µM (inactive)
16,CN1C(=O)c2cc(NC(=O)c3cnccn3)ccc2OC[C@@H]2O[C@@H](CC(=O)NCC3CCCCC3)CC[C@H]21,> 10 µM (inactive)
17,COc1ccc2c3c([nH]c2c1)[C@@H](CO)N(C(=O)c1cccnc1)CC31CCN(C(=O)CN(C)C)CC1,> 10 µM (inactive)
18,O=C(NC1CCCCC1)N1CC(=O)N2[C@H](C1)[C@H](c1ccc(-c3ccncc3)cc1)[C@@H]2CO,> 10 µM (inactive)
